Patent EP1113726B1, “USE OF NEOHESPERIDIN DIHYDROCHALCONE FOR THE MANUFACTURE OF A MEDICAMENT FOR PREVENTING OR TREATING ELEVATED BLOOD LIPID LEVEL-RELATED DISEASES” (Korea Research Institute of Bioscience and Biotechnology, priority 1998, dated 2000)

Key:
Assay type in all cases: in vivo
[1] = tested on: New Zealand White rabbits; test: Analysis for fatty streak in the main artery of cholesterol-fed rabbits (Oil Red O staining); conditions: 1 % cholesterol diet for 6 weeks plus 1 mg/kg Lovastatin or 0.05 % neohesperidin dihydrochalcone
Description: (§1) 30 three-month-old New Zealand White rabbits(Yeonam Horticulture and Animal Husbandry College, Korea), each weighing about 2.5 to 2.6 kg, were raised under a condition of temperature 20±2°C, relative humidity 55±5 %, and photoperiod 12L/12D. The rabbits were divided into 3 groups and 3 groups of rabbits were fed with 3 different diets, i.e., RC4 diet(Oriental Yeast Co., Japan) containing 1 % cholesterol(Control group); 1 % cholesterol plus 1 mg/kg Lovastatin®(Merck, U.S.A.)(Lovastatin group); and 1 % cholesterol plus 0.05 % neohesperidin dihydrochalcone(Neohesperidin dihydrochalcone group), respectively. RC4 diet comprises 7.6 % moisture, 22.8 % crude protein, 2.8 % crude fat, 8.8 % crude ash, 14.4 % crude cellulose and 43.6 % soluble nitrogen-free substances. Neohesperidin dihydrochalcone was purchased from Sigma Chemical Co.(St. Louis, MO).
(§2) The rabbits were fed for 6 weeks while being allowed free access to the diets and water.
The chest of each of the rabbits sacrificed in Step 2 was incised. The downward portion of the main artery from the site 1 cm above the aortic valve was cut out in a length of about 5 cm and the fat surrounding the main artery was removed. The main artery was incised in the middle along the longitudinal axis and pinned to a dish. The moist artery was photographed and, then, the staining of fatty streaks was carried out in accordance with the method of Esper, E., et al. (J. Lab. Clin. Med., 121, 103-110(1993)) as follows.
A part of the incised main artery was washed three times with anhydrous propylene glycol for 2 min and stained for 30 min. with a saturated solution of Oil Red O(ORO, Sigma Co.) dissolved in propylene glycol. Thereafter, the artery was washed twice with 85 % propylene glycol for 3 min. to remove remaining staining solution and, then washed with physiological saline. The artery was photographed and the photograph was traced. The area of stained region (fatty streak region) was determined with an image analyzer(LEICA, Q-600, Germany) and its proportion(%) to the total arterial area was calculated.

[2] = tested on: New Zealand White rabbits; test: Microscopic grading of abnormal fat-containing cells in the liver of cholesterol-fed rabbits (fatty liver); conditions: 1 % cholesterol diet for 6 weeks plus 1 mg/kg Lovastatin or 0.05 % neohesperidin dihydrochalcone
Description: as §1, §2
In order to evaluate the effects of feeding a high cholesterol diet with neohesperidin dihydrochalcone on liver tissues, the liver specimens taken from the sacrificed rabbit in Step 2 of Example 6 were treated in accordance with the procedure disclosed in Fogt F. and Nanji A., Toxicology and Applied Pharmacology, 136, 87-93, 1996; and Keegan A., et al., Journal of Hepatology 23: 591-600, 1995, and observed under a microscope to be classified into four grades, i.e., 1+(0-25%), 2+(26-50%), 3+(51-75), 4+(76-100%) based on the proportion of abnormal fat-containing cells around the central vein in the liver acinus.
Figs. 2A, 2B and 2C present the microscopic features of the livers of the rabbits administered with 1% cholesterol; 1% cholesterol plus 1 mg/kg Lovastatin®; 1% and cholesterol plus 0.05% neohesperidin dihydrochalcone, respectively.

[3] = tested on: New Zealand White rabbits; test: Chemical analysis of blood of cholesterol-fed rabbits; conditions: rabbit serum, 1 % cholesterol diet for 6 weeks plus 1 mg/kg Lovastatin or 0.05 % neohesperidin dihydrochalcone
Description: as §1, §2
After six weeks, the rabbits were anesthetized with an intramuscular injection of ketamine (50 mg/kg) in the femoral region and sacrificed.

## CC[C@H](C)C(=O)O[C@H]1C[C@@H](C)C=C2C=C[C@H](C)[C@H](CC[C@@H]3C[C@@H](O)CC(=O)O3)[C@H]21 [Lovastatin, reference compound]
[1]; rabbit main artery
  A: Proportion(%) of fatty streak region to the total arterial area: 5 (±4) %
[1]; rabbits
  layer of macrophage-lipid complex on the arterial endothelium (Figs. 1B, 1C): no or very thin layers of macrophage-lipid complex
[2]; rabbit liver, cells around the central vein, mean of grades 1+ to 4+
  B: Proportion of abnormal fat-containing cells: 3.4 (±0.5)
[2]; rabbits
  microscopic features of the liver (Figs. 2B, 2C): many cells containing excessive fat
[3]
  GOT: 125 (±19) IU/1
  GPT: 73 (±9) IU/l
  Total-C: 1210 (±263) mg/dl
  γ-GTP: 12.4 (±0.8) IU/l
